Test results published in US20250268980A1, “AN ANTICANCER THERAPY TARGETING RAS AND OTHER ONCOGENIC SIGNALS BY INHIBITION OF DYNAMIC BLEBBING AND/OR SEPTINS” (THE BOARD OF REGENTS OF THE UNIVERSITY OF TEXAS SYSTEM, priority 2022, published 2025).

Tested on: septin structures in MV3 melanoma xenografts
Test: Septin foci at invasive front of MV3 SEPT6-GFP xenograft tumors (ctASLM)
Format: in vivo, NOD SCID mice
Settings: mice with MV3 SEPT6-GFP tumors, FCF via oral gavage
Source text: NOD SCID mice were flank-injected with SEPT6-GFP-expressing MV3 melanoma cells to form xenograft tumors. Once tumors were palpable at injection sites they were dissected out with surrounding stroma, fixed, cleared, and imaged via cleared tissue axially-scanned lightsheet microscopy (ctASLM) to observe and quantify bleb formation and septin structure formation. As shown in FIG. 18A and FIG. 18B these in vivo experiments recapitulated in vitro results described previously, showing blebby morphologies with associated punctate septin structures (FIG. 18A). Importantly, this phenotype was exclusively observed at the invasive front of tumors, where cells lose contact to surrounding tissue, and not in the densely packed tumor core (FIG. 18B). These findings agree with previous research showing that blebby amoeboid-like cells are enriched at tumor invasive fronts. […] Furthermore, they support the idea that such bleb-associated septin signaling hubs are relevant in disease progression in human patients.
Specifically, FIG. 20A and FIG. 20B depict graphs illustrating the feasibility of anti-septin therapy in vivo. In triplicate experiments, mice growing tumors formed with SEPT6-GFP expressing MV3 melanoma cells (using the methods described in Example 8 above) were treated with FCF via oral gavage and septin structures were analyzed. […]

SMILES: O=C(Nc1ccccc1)Nc1ccnc(Cl)c1 [FCF, forchlorfenuron]
- intensity of septin foci at the invasive front: dimmer
- number of septin foci at the invasive front: significantly fewer
